Measured values as given in patent publication EP1058679B1.

Details: from CC[Si](CC)(CC)O[C@@H](CC(=O)O)C(C)(C)C(=O)[C@H](C)[C@@H](OC(=O)OCC(Cl)(Cl)Cl)[C@@H](C)CCC/C(C)=C\C[C@H](O)/C(C)=C/c1csc(C)n1; ester bond; 2,4,6-trichlorobenzoyl chloride, Et3N, DMAP; toluene; 0.79 mM; 25.0 °C; 3.5 h

CC[Si](CC)(CC)O[C@H]1CC(=O)O[C@H](/C(C)=C/c2csc(C)n2)C/C=C(/C)CCC[C@H](C)[C@H](OC(=O)OCC(Cl)(Cl)Cl)[C@@H](C)C(=O)C1(C)C
ring closure, yield of all isomers: 78%
